In the supplement of paper PMC3937590:

Assays:
Assay in all cases: -log10 GI50 (growth inhibition 50%) (-log10(M)); higher = more potent growth inhibition
HCC1806 = test system: HCC1806
Method in brief: (§1)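 Dose-response data came from breast cancer cell lines exposed to each compound for 72 hours at nine doses in 1:5 serial dilution, in triplicate, and read by luminescence relative to a time-zero plate. A Gompertz curve fitted by nonlinear least squares gave GI50, the molar concentration for the set level of growth inhibition, reported as its negative logarithm to base 10. Where a value equals the top dose, it carries a < qualifier.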

SUM229PE = test system: SUM229PE
Method in brief: as §1

T47D = test system: T47D
Method in brief: as §1

BT483 = test system: BT483
Method in brief: as §1

ZR751 = test system: ZR751
Method in brief: as §1

MCF10A = test system: MCF10A
Method in brief: as §1

SUM225CWN = test system: SUM225CWN
Method in brief: as §1

HCC1937 = test system: HCC1937
Method in brief: as §1

SUM1315MO2 = test system: SUM1315MO2
Method in brief: as §1

MX1 = test system: MX1
Method in brief: as §1

184B5 = test system: 184B5
Method in brief: as §1

T47D_KBluc = test system: T47D_KBluc
Method in brief: as §1

LY2 = test system: LY2
Method in brief: as §1

SUM149PT = test system: SUM149PT
Method in brief: as §1

HCC70 = test system: HCC70
Method in brief: as §1

SKBR3 = test system: SKBR3
Method in brief: as §1

UACC812 = test system: UACC812
Method in brief: as §1

SUM52PE = test system: SUM52PE
Method in brief: as §1

HCC3153 = test system: HCC3153
Method in brief: as §1

MDAMB157 = test system: MDAMB157
Method in brief: as §1

Row | Structure (SMILES) | -log10 GI50 (HCC1806) | -log10 GI50 (SUM229PE) | -log10 GI50 (T47D) | -log10 GI50 (BT483) | -log10 GI50 (ZR751) | -log10 GI50 (MCF10A) | -log10 GI50 (SUM225CWN) | -log10 GI50 (HCC1937) | -log10 GI50 (SUM1315MO2) | -log10 GI50 (MX1) | -log10 GI50 (184B5) | -log10 GI50 (T47D_KBluc) | -log10 GI50 (LY2) | -log10 GI50 (SUM149PT) | -log10 GI50 (HCC70) | -log10 GI50 (SKBR3) | -log10 GI50 (UACC812) | -log10 GI50 (SUM52PE) | -log10 GI50 (HCC3153) | -log10 GI50 (MDAMB157)
1 | CCNCCCCNCCCCNCCCCNCCCCNC/C=C/CNCCCCNCCCCNCCCCNCCCCNCC | 6.71 | 6.24 | 6.97 | 6.25 | 6.82 | 5.9 | 5.49 | 4.95 | 5.69 | 6.57 | 5.62 | 6.46 | 5.18 | 6.53 | 6.55 | 5.31 | 6.78 | 6.81 | 6.72 | 6.97
2 | CNC(=O)c1c(F)cccc1Nc1nc(Nc2cc3c(cc2OC)CCN3C(=O)CN(C)C)nc2[nH]ccc12 | 4.09 | 6.2 | 5.02 | 5.49 | 5.17 | 5.45 | 4.9 | 4.71 | 5.1 | 5.29 | 6.32 | 5.13 | 6.27 | 5.41 | 5.18 | 4.99 | 5.31 | 5.68 | 5.39 | 5.06
3 | COc1cc2c(Nc3ccc(NC(=O)c4ccccc4)cc3)ncnc2cc1OCCCN1CCOCC1 | < 4 | 5.93 | 4.94 | 4.56 | 5.47 | < 4.48 | 4.98 | 5.23 | < 4.3 | 6.35 | < 4.3 | < 4.3 |  | < 4 | 5.85 | 4.76 | 5.41 | 5.46 | < 4 | 5.66
4 | COc1cccc(-c2cc(=O)c3ccccc3o2)c1N | < 4.3 | < 4.3 | < 4.3 | 4.52 | < 4.3 | < 4.3 | 4.64 | 4.5 | < 4.3 | 4.39 | < 4.3 | < 4.3 | < 4.3 | 4.66 | < 4.3 | 4.73 | 4.65 | 4.92 | 4.1 | < 4.3
5 | COc1ncc(-c2ccc3nccc(-c4ccnnc4)c3c2)cc1NS(=O)(=O)c1ccc(F)cc1F | 7.54 | 8.59 | 8.45 | 8.94 | 8.09 | 8.1 | 8.79 | 7.57 | 8.02 | 8.39 | 8.23 | 7.71 | 7.94 | 7.64 | 8.13 | 8.41 | 8.49 | 8.46 | 7.38 | 6.51
6 | O=C1C(Cl)=C(NCCN2CCOCC2)C(=O)c2ncccc21 | 5.61 | 5.26 | 5.19 | 6.19 | 5.76 | 5.65 | 5.64 | 6.07 | 5.96 | 6.17 | 5.57 | 5.38 | 6.27 | 5.69 | 5.52 | 5.86 | 5.6 | 5.62 | 5.64 | 5.87
7 | O=C1NC(=O)/C(=C/c2ccc(-c3ccc(F)cc3O)o2)S1 | 5.25 | < 4.18 | 5.25 | 4.77 | 5.2 | < 4.18 | 5.47 | < 4.18 | 4.92 | 4.66 | 4.65 | < 4.48 | 4.51 | 5 | 4.67 | 4.4 | 4.88 | 4.69 | < 4.18 | < 4.48
8 | O=c1[nH]c2ccccc2n1C1CCN(Cc2ccc(-c3[nH]c4cc5ncnc5cc4nc3-c3ccccc3)cc2)CC1 [Akt inhibitor VIII] | 5.05 | 4.94 | 5.78 | 6.2 | 6.13 | 5.34 | 6.16 | 5 | 5.34 | 5.45 | 5.56 | 5.31 | 5.85 | 4.96 | 5.74 | 5.68 | 5.45 | 5.85 | 5.01 | 4.86
9 | Cn1c(=O)n(-c2ccc(C(C)(C)C#N)cc2)c2c3cc(-c4cnc5ccccc5c4)ccc3ncc21 [BEZ235] | < 4.48 | 6.67 | 6.55 | 5.87 | 5.74 | 7.26 | 6.68 | < 4.48 | 6.49 | < 4.48 |  | < 4.48 | 6.8 | 6.5 | 6.8 | < 4.48 | 5.69 | 5.51 | 6.19 | 6.55
10 | CN(C)C/C=C/C(=O)Nc1cc2c(Nc3ccc(F)c(Cl)c3)ncnc2cc1O[C@H]1CCOC1 [BIBW2992] | 6.27 | 5.95 |  | 5.78 | 5.63 | 7.49 | 8.03 | 5.68 | 6.79 | 6.58 | 7.22 | 5.45 | 5.65 | 7.13 | 6.33 | 7.88 | 8.55 | 5.47 |  | 5.61
11 | COc1cc(Nc2c(C#N)cnc3cc(OCCCN4CCN(C)CC4)c(OC)cc23)c(Cl)cc1Cl [Bosutinib] | 5.69 | 5.88 |  | 5.43 | 4.94 | 5.85 | 5.81 | 5.84 | 6.12 | 6.38 | 6.26 | < 4.48 | 5.66 | 6.13 | 6.03 | 5.41 | 5.56 | 5.85 | 5.18 | 5.88
12 | C#Cc1cccc(Nc2ncnc3cc(OCCOC)c(OCCOC)cc23)c1 [Erlotinib] | 5.37 | 4.95 | < 4.18 | 4.78 | < 4.18 | 5.97 | 4.89 | 4.41 | 5.03 | 5.16 | 6.32 | < 4.18 | < 4.18 | 5.7 | 5.76 | 4.8 | 4.91 | 4.98 | 4.51 | < 4.18
13 | CO[C@H]1C[C@@H]2CC[C@@H](C)[C@@](O)(O2)C(=O)C(=O)N2CCCC[C@H]2C(=O)O[C@H]([C@H](C)C[C@@H]2CC[C@@H](OCCO)[C@H](OC)C2)CC(=O)[C@H](C)/C=C(\C)[C@@H](O)[C@@H](OC)C(=O)[C@H](C)C[C@H](C)/C=C/C=C/C=C/1C [Everolimus] | 4.61 | 4.75 | 5.92 | 5.55 | 7.55 | 6.08 | 7.62 | 6.1 | 5.23 | 5.33 | 5.55 | 5 | 7.52 | 5.42 | 6.96 | 6.84 | 7.49 | 7.73 | 4.85 | 4.63
14 | CSCC[C@H](NC(=O)[C@H](Cc1ccccc1)NC[C@@H](NC[C@@H](N)CS)C(C)C)C(=O)O [FTase inhibitor I] | < 4.48 | < 4.48 | < 4.48 | < 4.48 | < 4.18 | < 4.48 | 4.49 | < 4.48 | < 4.18 | < 4.48 | < 4.18 | < 4.18 | < 4.48 | 4.76 | < 4.18 | < 4.48 | < 4.48 | 4.93 | < 4.48 | < 4.18
15 | O=c1[nH]c(=O)n([C@H]2C[C@H](O)[C@@H](CO)O2)cc1F [Floxuridine] | 4.02 | 4.16 | 3.48 | 4.15 | 5.55 | 4.86 | 3.53 | 3.37 | 3.18 | 2.84 | 3.65 | 2.8 | 5.63 | 4.12 | 3.67 | 3.66 | 4.11 | 3.45 | 3.11 | 3.87
16 | CCCCCN(C)CCC(O)(P(=O)(O)O)P(=O)(O)O [Ibandronate sodium] | 4.44 | 4.27 | 4.46 | 4.24 | 4.16 | 3.39 | 3.3 | 4.53 | 4.29 | 3.94 | 3.62 | 3.92 | 3.9 | 3.76 | 4.2 | 4.05 | 3.83 | 4.47 | 4.05 | 4.36
17 | Cc1ccc(NC(=O)c2ccc(CN3CCN(C)CC3)cc2)cc1Nc1nccc(-c2cccnc2)n1 [Imatinib] | 5.15 | 5.27 | 4.79 | 3.82 | 4.56 | 4.36 | 4.9 | 4.69 | 4.63 | 4.65 | 4.63 | 4.67 | 4.65 | 4.67 | 4.77 | 4.63 | 4.98 | 4.65 | 4.52 | 4.76
18 | C/C(=C\c1csc(C)n1)[C@@H]1C[C@@H]2O[C@]2(C)CCC[C@H](C)[C@H](O)[C@@H](C)C(=O)C(C)(C)[C@@H](O)CC(=O)N1 [Ixabepilone] | 8.36 | 8.72 | 8.26 | 5.27 | 6.68 | 8.1 | 5.96 | 6.76 | 8.22 | 8.53 | 6.76 | 7.61 | 8.22 | 8.26 | 8.85 | 7.99 | 5.24 | 9.53 | 8.21 | 8.33
19 | Cc1[nH]c2ccccc2c1CCNCc1ccc(/C=C/C(=O)NO)cc1 [LBH589] | 6.82 | 6.57 | 6.82 | 7.14 | 6.8 | 6.84 | 6.96 | 6.72 | 6.62 | 7.47 | 6.99 | 6.88 |  | 6.6 | 7.11 | 7.25 | 6.89 | 6.83 | 6.53 | 7.29
20 | C[C@]12O[C@H](C[C@]1(O)CO)n1c3ccccc3c3c4c(c5c6ccccc6n2c5c31)CNC4=O [Lestaurtinib] | 6.79 | 6.48 | 5.25 | 6.21 | 5.75 | 6.26 | 6.03 | 6.21 | 7.45 | 7.17 | 6.49 | 5.17 | 6.6 | 7.12 | 6.71 | 6 | 5.75 | 6.87 | 5.06 | 6.46
